Source: ChEMBL document CHEMBL1150733, “(+)-Curcuphenol and (+)-Curcudiol, Sesquiterpene Phenols from Shallow and Deep Water Collections of the Marine Sponge Didiscus flavus” (J Nat Prod, 1987)
Converted amounts (≈) assume the structure as drawn.

Key:
[1] = test system: Candida albicans; experiment: Antifungal activity against Candida albicans; format: functional
[2] = test system: HCT-8; experiment: Cytotoxicity against human HCT8 cells; format: functional
[3] = Cytotoxicity against human MDA-MB cells; format: functional
[4] = test system: A549; experiment: Cytotoxicity against human A549 cells; format: functional
[5] = test system: P388; experiment: Cytotoxicity against mouse P388 cells; format: functional, cell-based

Cc1ccc([C@@H](C)CCCC(C)(C)O)c(O)c1
MIC [1]: 250 µg/mL (≈ 1060 µM)

CC(C)=CCC[C@H](C)c1ccc(C)cc1O
MIC [2]: 0.1 µg/mL (≈ 0.458 µM) | MIC [1]: 8 µg/mL (≈ 36.6 µM) | MIC [3]: 0.1 µg/mL (≈ 0.458 µM) | MIC [4]: 10 µg/mL (≈ 45.8 µM) | IC50 [5]: 7 µg/mL (≈ 32.1 µM)
